What was measured:
Experiment in all cases: relative viability (nuclei count vs DMSO), 5 days (fraction); higher = more cells survive
[1] = compound: O=C1NC(=O)[C@@H](c2cn3c4c(cccc24)CCC3)[C@@H]1c1c[nH]c2ccccc12 [Tivantinib] + Cc1cc(Nc2cc(N3CCN(C)CC3)nc(Sc3ccc(NC(=O)C4CC4)cc3)n2)n[nH]1 [Tozasertib] (partner 0.1 µM)
Procedure, shortened: (§1)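 Values are medians from duplicate plates. Each reflects relative viability, defined as the nuclei count of treated wells over that of vehicle wells. Lung cancer cell lines in 1536-well plates were pin-tool dosed one day after seeding with one drug alone or with a fixed anchor-drug dose plus five library-drug doses (not always all listed) in √10 steps, then fixed, stained and imaged at 4× after 5 days.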

[2] = compound: CC1(COc2ccc3c(c2)ncn3-c2ccc3cccc(N4CCC(N)CC4)c3n2)COC1 [Crenolanib] + CS(=O)(=O)CCNCc1ccc(-c2ccc3ncnc(Nc4ccc(OCc5cccc(F)c5)c(Cl)c4)c3c2)o1 [Lapatinib] (partner 2 µM)
Procedure, shortened: as §1

[3] = compound: CC1(COc2ccc3c(c2)ncn3-c2ccc3cccc(N4CCC(N)CC4)c3n2)COC1 [Crenolanib] + O=C(c1cc(Cc2n[nH]c(=O)c3ccccc23)ccc1F)N1CCN(C(=O)C2CC2)CC1 [Olaparib] (partner 8 µM)
Procedure, shortened: as §1

[4] = compound: O=C1NC(=O)[C@@H](c2cn3c4c(cccc24)CCC3)[C@@H]1c1c[nH]c2ccccc12 [Tivantinib] + Nc1ncn([C@H]2C[C@H](O)[C@@H](CO)O2)c(=O)n1 [Decitabine] (partner 2 µM)
Procedure, shortened: as §1

## SW 1573
[1]; first compound 0.01 µM
  relative viability: 0.23
[1]; first compound 0.03162 µM
  relative viability: 0.262
[1]; first compound 0.1 µM
  relative viability: 0.177
[1]; first compound 0.3162 µM
  relative viability: 0.127
[2]; first compound 0.01 µM
  relative viability: 1.01
[2]; first compound 0.03162 µM
  relative viability: 1.06
[2]; first compound 0.1 µM
  relative viability: 1.3
[2]; first compound 0.3162 µM
  relative viability: 1.18
[2]; first compound 1 µM
  relative viability: 1.1
[3]; first compound 0.01 µM
  relative viability: 0.589
[3]; first compound 0.03162 µM
  relative viability: 0.416
[3]; first compound 0.1 µM
  relative viability: 0.44
[3]; first compound 0.3162 µM
  relative viability: 0.651
[3]; first compound 1 µM
  relative viability: 0.484
[4]; first compound 0.01 µM
  relative viability: 0.688
[4]; first compound 0.03162 µM
  relative viability: 0.462
[4]; first compound 0.1 µM
  relative viability: 0.446
[4]; first compound 0.3162 µM
  relative viability: 0.494

From the supplement of paper PMC10307832
